Source: patent US7244431B2, “Allergy vaccines and their preparation” (priority 2000, dated 2007)

Columns and labels:
[1] = tested on: IgE antibodies in sera from birch pollen allergic patients; test: ELISA detection of peptide- and rBet v 1-specific IgE antibodies; format: binding, human
Description: Birch pollen allergic patients suffering from allergic rhinoconjunctivitis and/or asthma to birch pollen and related allergens were selected according to case history indicative for seasonal birch pollinosis and characterized by skin prick testing with birch pollen extract and serological CAP RAST (Pharmacia Diagnostics, Uppsala, Sweden) testing. Total IgE levels in the sera were determined by CAP RIST measurements (Pharmacia). […] Sera from 60 birch pollen allergic patients and a non-atopic individual were used for IgE competition studies. The birch pollen allergic patients group consisted of 25 males and 35 females with a mean age of 37 years (ranging from 19-60 years) (Table 2).
Subsequently, plates were incubated with 1:3 diluted sera from 60 birch pollen allergic patients and from a non-atopic individual overnight at 4° C. Bound IgE antibodies were detected with a 1:1000 diluted alkaline-phosphatase-coupled mouse monoclonal anti-human IgE antibody (Pharmingen, San Diego, Calif.).

[2] = tested on: birch pollen allergic patients; test: Skin prick testing of allergic patients; format: in vivo, human; conditions: 100 μg/ml
Description: SPTs were performed on the individuals forearms as described ([…]. et al. (1997) J. Clin Invest. 99, 1673-168; Dreborg S: (1989) J. Am. Acad. DerMatol. 21, 820-821). […] In addition standardized skin prick solutions (birch pollen extract and histamine) (Allergopharma, Reinbek, Germany) were tested. Reactions were recorded 20 minutes after SPT by photography and by transferring the ballpoint pen-surrounded wheal area with a scotch tape to paper.

## CGPGTIKKISFPEGFPFKYVKDRVDEVDHTN [Peptide P3, Bet v 1-derived synthetic peptide, position aa 50-79, one cysteine added]
[1]; serum of NHS, non-allergic control individual
  IgE (OD): — (Dashes indicate reactivities below the cut-off level (OD=0.050))
[1]; serum of patient 1
  IgE (OD): — (Dashes indicate reactivities below the cut-off level (OD=0.050))
[1]; serum of patient 2
  IgE (OD): — (Dashes indicate reactivities below the cut-off level (OD=0.050))
[1]; serum of patient 3
  IgE (OD): — (Dashes indicate reactivities below the cut-off level (OD=0.050))
[1]; serum of patient 4
  IgE (OD): — (Dashes indicate reactivities below the cut-off level (OD=0.050))
[1]; serum of patient 5
  IgE (OD): — (Dashes indicate reactivities below the cut-off level (OD=0.050))
[1]; serum of patient 6
  IgE (OD): — (Dashes indicate reactivities below the cut-off level (OD=0.050))
[1]; serum of patient 7
  IgE (OD): — (Dashes indicate reactivities below the cut-off level (OD=0.050))
[1]; serum of patient 8
  IgE (OD): — (Dashes indicate reactivities below the cut-off level (OD=0.050))
[1]; serum of patient 9
  IgE (OD): — (Dashes indicate reactivities below the cut-off level (OD=0.050))
[1]; serum of patient 10
  IgE (OD): — (Dashes indicate reactivities below the cut-off level (OD=0.050))
[1]; serum of patient 11
  IgE (OD): — (Dashes indicate reactivities below the cut-off level (OD=0.050))
[1]; serum of patient 12
  IgE (OD): — (Dashes indicate reactivities below the cut-off level (OD=0.050))
[1]; serum of patient 13
  IgE (OD): — (Dashes indicate reactivities below the cut-off level (OD=0.050))
[1]; serum of patient 14
  IgE (OD): — (Dashes indicate reactivities below the cut-off level (OD=0.050))
[1]; serum of patient 15
  IgE (OD): — (Dashes indicate reactivities below the cut-off level (OD=0.050))
[1]; serum of patient 16
  IgE (OD): — (Dashes indicate reactivities below the cut-off level (OD=0.050))
[1]; serum of patient 17
  IgE (OD): — (Dashes indicate reactivities below the cut-off level (OD=0.050))
[1]; serum of patient 18
  IgE (OD): — (Dashes indicate reactivities below the cut-off level (OD=0.050))
[1]; serum of patient 19
  IgE (OD): — (Dashes indicate reactivities below the cut-off level (OD=0.050))
[1]; serum of patient 20
  IgE (OD): — (Dashes indicate reactivities below the cut-off level (OD=0.050))
[1]; serum of patient 21
  IgE (OD): — (Dashes indicate reactivities below the cut-off level (OD=0.050))
[1]; serum of patient 22
  IgE (OD): — (Dashes indicate reactivities below the cut-off level (OD=0.050))
[1]; serum of patient 23
  IgE (OD): — (Dashes indicate reactivities below the cut-off level (OD=0.050))
[1]; serum of patient 24
  IgE (OD): — (Dashes indicate reactivities below the cut-off level (OD=0.050))
[1]; serum of patient 25
  IgE (OD): — (Dashes indicate reactivities below the cut-off level (OD=0.050))
[1]; serum of patient 26
  IgE (OD): — (Dashes indicate reactivities below the cut-off level (OD=0.050))
[1]; serum of patient 27
  IgE (OD): — (Dashes indicate reactivities below the cut-off level (OD=0.050))
[1]; serum of patient 28
  IgE (OD): — (Dashes indicate reactivities below the cut-off level (OD=0.050))
[1]; serum of patient 29
  IgE (OD): — (Dashes indicate reactivities below the cut-off level (OD=0.050))
[1]; serum of patient 30
  IgE (OD): — (Dashes indicate reactivities below the cut-off level (OD=0.050))
[1]; serum of patient 31
  IgE (OD): — (Dashes indicate reactivities below the cut-off level (OD=0.050))
[1]; serum of patient 32
  IgE (OD): — (Dashes indicate reactivities below the cut-off level (OD=0.050))
[1]; serum of patient 33
  IgE (OD): — (Dashes indicate reactivities below the cut-off level (OD=0.050))
[1]; serum of patient 34
  IgE (OD): — (Dashes indicate reactivities below the cut-off level (OD=0.050))
[1]; serum of patient 35
  IgE (OD): — (Dashes indicate reactivities below the cut-off level (OD=0.050))
[1]; serum of patient 36
  IgE (OD): — (Dashes indicate reactivities below the cut-off level (OD=0.050))
[1]; serum of patient 37
  IgE (OD): — (Dashes indicate reactivities below the cut-off level (OD=0.050))
[1]; serum of patient 38
  IgE (OD): — (Dashes indicate reactivities below the cut-off level (OD=0.050))
[1]; serum of patient 39
  IgE (OD): — (Dashes indicate reactivities below the cut-off level (OD=0.050))
[1]; serum of patient 40
  IgE (OD): — (Dashes indicate reactivities below the cut-off level (OD=0.050))
[1]; serum of patient 41
  IgE (OD): — (Dashes indicate reactivities below the cut-off level (OD=0.050))
[1]; serum of patient 42
  IgE (OD): — (Dashes indicate reactivities below the cut-off level (OD=0.050))
[1]; serum of patient 43
  IgE (OD): — (Dashes indicate reactivities below the cut-off level (OD=0.050))
[1]; serum of patient 44
  IgE (OD): — (Dashes indicate reactivities below the cut-off level (OD=0.050))
[1]; serum of patient 45
  IgE (OD): — (Dashes indicate reactivities below the cut-off level (OD=0.050))
[1]; serum of patient 46
  IgE (OD): — (Dashes indicate reactivities below the cut-off level (OD=0.050))
[1]; serum of patient 47
  IgE (OD): — (Dashes indicate reactivities below the cut-off level (OD=0.050))
[1]; serum of patient 48
  IgE (OD): — (Dashes indicate reactivities below the cut-off level (OD=0.050))
[1]; serum of patient 49
  IgE (OD): — (Dashes indicate reactivities below the cut-off level (OD=0.050))
[1]; serum of patient 50
  IgE (OD): — (Dashes indicate reactivities below the cut-off level (OD=0.050))
[1]; serum of patient 51
  IgE (OD): — (Dashes indicate reactivities below the cut-off level (OD=0.050))
[1]; serum of patient 52
  IgE (OD): — (Dashes indicate reactivities below the cut-off level (OD=0.050))
[1]; serum of patient 53
  IgE (OD): — (Dashes indicate reactivities below the cut-off level (OD=0.050))
[1]; serum of patient 54
  IgE (OD): — (Dashes indicate reactivities below the cut-off level (OD=0.050))
[1]; serum of patient 55
  IgE (OD): — (Dashes indicate reactivities below the cut-off level (OD=0.050))
[1]; serum of patient 56
  IgE (OD): — (Dashes indicate reactivities below the cut-off level (OD=0.050))
[1]; serum of patient 57
  IgE (OD): — (Dashes indicate reactivities below the cut-off level (OD=0.050))
[1]; serum of patient 58
  IgE (OD): — (Dashes indicate reactivities below the cut-off level (OD=0.050))
[1]; serum of patient 59
  IgE (OD): — (Dashes indicate reactivities below the cut-off level (OD=0.050))
[1]; serum of patient 60
  IgE (OD): — (Dashes indicate reactivities below the cut-off level (OD=0.050))
[2]; individual 1
  mean wheal diameter: 0 mm
[2]; individual 2
  mean wheal diameter: 0 mm
[2]; individual 3
  mean wheal diameter: 0 mm
[2]; individual 4
  mean wheal diameter: 0 mm
[2]; individual 5
  mean wheal diameter: 0 mm
[2]; individual 6 (allergic, without birch pollen allergy)
  mean wheal diameter: 0 mm
